Results taken from US9084423B2, “Inhibition of bacterial biofilms with imidazole derivatives” (North Carolina State University, priority 2007, dated 2015).
Counter-ions that a name gives are not always drawn.

What was measured:
Format in all cases: cell-based, Pseudomonas aeruginosa
[1] = test system: P. aeruginosa strain PAO1; assay: Static biofilm inhibition assay (crystal violet), PAO1; conditions: for IC50 / inhibition at 500 µM: Pseudomonas aeruginosa, PAO1; for IC50: inhibition of biofilm formation, crystal violet, 24 hours
Method: Each compound was assayed for the ability to inhibit the formation of P. aeruginosa biofilms. […] We employed a standard crystal violet reporter assay to assess for the formation of biofilms. Briefly, P. aeruginosa strain PAO1 was allowed to form biofilms in a multi-well plate in the absence or presence of our compounds. Planktonic (or free growing) bacteria were then removed, wells washed vigorously, and crystal violet added. Crystal violet stains the remaining bacteria which, following ethanol solubilization, can be quantitated by spectrophotometry (A540).
(§1) An overnight culture of the bacterial strain being screened against was subcultured at an OD600 of 0.1 into the media used (listed below with strain) and then pipetted into test tubes along with a predetermined concentration of our compound of interest. Test tubes were then poured into tilted Petri dishes and 100 μL of media, strain and compound were then transferred into 96-well PVC microtiter plates. These microtiter plates were then covered, wrapped in Saran™ Wrap polyethylene film (S.C. Johnson, Racine, Wis.) and allowed to incubate at 37° C. for 24 hours. After that time, the medium was discarded and the plates were thoroughly washed with water. The remaining biofilm that was formed during incubation was stained with 100 μL of a 0.1% crystal violet solution and allowed to incubate at room temperature for 30 minutes. After 30 minutes, the crystal violet was discarded and washed thoroughly again with water. The remaining crystal violet that had stained the biofilm in the inside walls of the 96-well PVC plates was solubilized with 200 μL of 95% ethanol. The quantification of biofilm formation was accomplished by transferring 125 μL of the ethanol solution into a polystyrene microtiter dish, which was read by spectrophotometry (A540). After the background has been subtracted from each row, a percent inhibition can be calculated by dividing the amount of crystal violet in wells that contained compound by the amount of crystal violet in wells that contained bacteria only. Each concentration reported during the course of this study was repeated two to five times with each of those biofilm inhibition assays being done in 6 replicates each.
(§2) An overnight culture of the wild type strain was subcultured at an OD600 of 0.10 into LBNS along with a predetermined concentration of the small molecule to be tested for biofilm inhibition. Samples were then aliquoted (100 μL) into the wells of a 96-well PVC microtiter plate. The microtiter dishes were covered and sealed before incubation under stationary conditions at 37° C. for 24 hours. After that time, the medium was discarded and the plates thoroughly washed with water. The wells were then inoculated with a 0.1% aqueous solution of crystal violet (100 μL) and allowed to stand at ambient temperature for 30 minutes. Following another thorough washing with water the remaining stain was solubilized with 200 μL of 95% ethanol. Biofilm inhibition was quantitated by measuring the OD540 for each well by transferring 125 μL of the ethanol solution into a fresh polystyrene microtiter dish for analysis.
(§3) To examine each compound's ability to inhibit the formation of Pseudomonas aeruginosa biofilms, PAO1 and PA14 were employed as the target bacterial strains using a crystal violet reporter assay. G. A. O'Toole, R. Kolter, Mol. Microbiol. 1998, 28, 449. All compounds were initially screened at 500 μM for anti-biofilm activity.
An overnight culture of the wild type strain was subcultured at an OD600 of 0.10 into LBNS along with a predetermined concentration of the small molecule to be tested for biofilm inhibition. Samples were then aliquoted (100 μL) into the wells of a 96-well PVC microtiter plate. The microtiter dishes were covered and sealed before incubation under stationary conditions at 37° C. for 24 hours, After that time, the medium was discarded and the plates thoroughly washed with water. […]

[2] = test system: P. aeruginosa PA14; assay: Static biofilm inhibition assay (crystal violet), PA14; conditions: for IC50 / inhibition at 500 µM: Pseudomonas aeruginosa; for IC50: PA14, inhibition of biofilm formation, crystal violet, 24 hours; for inhibition at 500 µM: PA14, 24 h
Method: as §1, §2, §3
as §2, with “for 24 hours, After that” for “for 24 hours. After that”, “violet (100 pt) and allowed” for “violet (100 μL) and allowed”

[3] = test system: planktonic P. aeruginosa PAO1; assay: Planktonic growth (growth curves, colony counts), PAO1; conditions: growth curves and/or colony counts, presence vs absence of compound, at IC50 or as stated
From the text: To answer the question of whether the compounds were antibiotics or true inhibitors of biofilm formation, we tested the ability of both compounds to inhibit growth of planktonic P. aeruginosa. Growth was quantitated by measuring optical density at 600 nm. […]

[4] = test system: planktonic P. aeruginosa PA14; assay: Planktonic growth (growth curves, colony counts), PA14; conditions: growth curves and/or colony counts, presence vs absence of compound, at IC50 or as stated

SMILES | inhibition at 500 µM [1] [%] | inhibition at 500 µM [2] [%] | further results
CCCCCCNC(=O)CCCc1c[nH]c(N)n1 [Compound 9, 4-(2-amino-1H-imidazol-4-yl)-N-hexyl-butyramide hydrochloride] |  |  | IC50 [1]: 32.7 ± 6.5 µM; IC50 [2]: 39.9 ± 13 µM
CCCCCCCCNC(=O)CCCc1c[nH]c(N)n1 [Compound 10, 4-(2-amino-1H-imidazol-4-yl)-N-octyl-butyramide hydrochloride] |  |  | IC50 [1]: 18.4 ± 2.3 µM; IC50 [2]: 13.3 ± 1.8 µM
Cl.Nc1nc(CCCNC(=O)c2ccc[nH]2)c[nH]1 [Compound 17, 1H-pyrrole-2-carboxylic acid [3-(2-amino-1H-imidazol-4-yl)-propyl]-amide hydrochloride] | < 10 | 16 | % Biofilm Inhibition at 500 μM vs PAO1 ([1]; 500 μM, hydrochloride): <10%
Nc1nc(CCCNC(=O)c2cc(Br)c[nH]2)c[nH]1 [Compound 18, 4-bromo-1H-pyrrole-2-carboxylic acid [3-(2-amino-1H-imidazol-4-yl)-propyl]-amide hydrochloride] | 74 | 86 | IC50 [1]: 323 ± 30 µM; IC50 [2]: 266 ± 23 µM
Nc1nc(CCCNC(=O)c2cc(Br)c(Br)[nH]2)c[nH]1 [Compound 19, 4,5-dibromo-1H-pyrrole-2-carboxylic acid [3-(2-amino-1H-imidazol-4-yl)-propyl]-amide hydrochloride] | < 70 | < 70 | 
Nc1nc(CCCNC(=O)c2cc(Cl)c(Cl)[nH]2)c[nH]1 [Compound 20, 4,5-dichloro-1H-pyrrole-2-carboxylic acid [3-(2-amino-1H-imidazol-4-yl)-propyl]-amide hydrochloride] | 37 | 48 | 
Cl.Cn1cccc1C(=O)NCCCc1c[nH]c(N)n1 [Compound 21, 1-methyl-pyrrole-2-carboxylic acid [3-(2-amino-1H-imidazol-4-yl)-propyl]-amide hydrochloride] | 25 |  | inhibition of PA14 biofilm formation (in words) ([2]; screen at 500 μM): inactive
Cn1cc(Br)cc1C(=O)NCCCc1c[nH]c(N)n1 [Compound 22, 4-bromo-1-methyl-pyrrole-2-carboxylic acid [3-(2-amino-1H-imidazol-4-yl)-propyl]-amide hydrochloride] | 88 | 83 | IC50 [1]: 348 ± 13 µM; IC50 [2]: 309 ± 16 µM
Cl.Cn1c(C(=O)NCCc2c[nH]c(N)n2)cc(Br)c1Br [Compound 27, 4,5-dibromo-1-methyl-pyrrole-2-carboxylic acid [2-(2-amino-1H-imidazol-4-yl)-ethyl]-amide hydrochloride] | > 95 | > 95 | IC50 [1]: 165 ± 23 µM; microbicidal effect on PAO1 planktonic growth (in words) [3]: no microbicidal activity; microbicidal effect on PA14 planktonic growth (in words) [4]: no microbicidal activity; IC50 [2]: 224 ± 22 µM
Cn1c(C(=O)NCCC=C2NC(N)=NC2=O)cc(Br)c1Br [Compound 32, 4,5-dibromo-1-methyl-pyrrole-2-carboxylic acid [3-(2-amino-5-oxo-3,5-dihydro-imidazol-4-ylidene)-propyl]-amide hydrochloride, reference compound] | < 20 | < 20 | 
O=C(NCCc1c[nH]cn1)c1ccc[nH]1 [Compound 34, 1H-pyrrole-2-carboxylic acid [2-(1H-imidazol-4-yl)-ethyl]amide hydrochloride] | 42 | 31 | 
O=C(NCCc1c[nH]cn1)c1cc(Br)c[nH]1 [Compound 35, 4-bromo-1H-pyrrole-2-carboxylic acid [2-(1H-imidazol-4-yl)-ethyl]-amide hydrochloride] | 46 | 43 | 
O=C(NCCc1c[nH]cn1)c1cc(Br)c(Br)[nH]1 [Compound 36, 4,5-dibromo-1H-pyrrole-2-carboxylic acid [2-(1H-imidazol-4-yl)-ethyl]-amide hydrochloride] | 73 | 69 | 
O=C(NCCc1c[nH]cn1)c1cc(Cl)c(Cl)[nH]1 [Compound 37, 4,5-dichloro-1H-pyrrole-2-carboxylic acid [2-(1H-imidazol-4-yl)-ethyl]-amide hydrochloride] | 33 | 38 | 
Cn1cccc1C(=O)NCCc1c[nH]cn1 [Compound 38, 1-methyl-pyrrole-2-carboxylic acid [2-(1H-imidazol-4-yl)-ethyl]amide hydrochloride] | 29 | 34 | 
Cn1cc(Br)cc1C(=O)NCCc1c[nH]cn1 [Compound 39, 4-bromo-1-methyl-pyrrole-2-carboxylic acid [2-(1H-imidazol-4-yl)-ethyl]amide hydrochloride] | 37 | 21 | 
O=C(NCCCc1c[nH]c(=S)[nH]1)c1ccc[nH]1 [Compound 43, 1H-pyrrole-2-carboxylic acid [3-(2-thioxo-2,3-dihydro-1H-imidazol-4-yl)-propyl]-amide] | 39 | 33 | 
O=C(NCCCc1c[nH]c(=S)[nH]1)c1cc(Br)c[nH]1 [Compound 44, 4-bromo-1H-pyrrole-2-carboxylic acid [3-(2-thioxo-2,3-dihydro-1H-imidazol-4-yl)-propyl]-amide] | 28 | 14 | 
O=C(NCCCc1c[nH]c(=S)[nH]1)c1cc(Br)c(Br)[nH]1 [Compound 45, 4,5-dibromo-1H-pyrrole-2-carboxylic acid [3-(2-thioxo-2,3-dihydro-1H-imidazol-4-yl)-propyl]-amide] | 61 | 56 | 
O=C(NCCCc1c[nH]c(=S)[nH]1)c1cc(Cl)c(Cl)[nH]1 [Compound 46, 4,5-dichloro-1H-pyrrole-2-carboxylic acid [3-(2-thioxo-2,3-dihydro-1H-imidazol-4-yl)-propyl]-amide] | 41 | 38 | 
Cn1cccc1C(=O)NCCCc1c[nH]c(=S)[nH]1 [Compound 47, 1-methyl-pyrrole-2-carboxylic acid [3-(2-thioxo-2,3-dihydro-1H-imidazol-4-yl)-propyl]-amide] | 27 | 36 | 
Cn1cc(Br)cc1C(=O)NCCCc1c[nH]c(=S)[nH]1 [Compound 48, 4-bromo-1-methyl-pyrrole-2-carboxylic acid [3-(2-thioxo-2,3-dihydro-1H-imidazol-4-yl)-propyl]-amide] | 41 | 57 | 
Cn1c(C(=O)NCCCc2c[nH]c(=S)[nH]2)cc(Br)c1Br [Compound 49, 4,5-dibromo-1-methyl-pyrrole-2-carboxylic acid [3-(2-thioxo-2,3-dihydro-1H-imidazol-4-yl)-propyl]-amide] | 46 | 38 | 
